Laboratory results from patent US10131652B2, “Pyrimidinyloxy benzene derivatives as herbicides” (E. I. DU PONT DE NEMOURS AND COMPANY, priority 2014, dated 2018).

How the values were obtained:
Assay in all cases: Test D flooded paddy test plant response
Format in all cases: in vivo
Conditions in all cases: Flood (flooded paddy test), visual rating on scale 0 to 100 (0 no effect, 100 complete control), 13 to 15 days
[1] = system: barnyardgrass (Echinochloa crus-galli)
Text: (§1) Plant species in the flooded paddy test consisted of rice (Oryza sativa), small-flower umbrella sedge (Cyperus difformis), ducksalad (Heteranthera limosa), and bamyardgrass (Echinochloa crus-galli) grown to the 2-leaf stage for testing. At time of treatment, test pots were flooded to 3 cm above the soil surface, treated by application of test compounds directly to the paddy water, and then maintained at that water depth for the duration of the test. Treated plants and controls were maintained in a greenhouse for 13 to 15 days, after which time all species were compared to controls and visually evaluated. Plant response ratings, summarized in Table D, are based on a scale of 0 to 100 where 0 is no effect and 100 is complete control. A dash (-) response means no test result.

[2] = system: ducksalad (Heteranthera limosa)
Text: as §1

[3] = system: rice (Oryza sativa)
Text: as §1

[4] = system: small-flower umbrella sedge (Cyperus difformis)
Text: as §1

| Structure (SMILES) | Plant response rating, Barnyardgrass ([1]; 31 g ai/ha) | Plant response rating, Barnyardgrass ([1]; 62 g ai/ha) | Plant response rating, Barnyardgrass ([1]; 125 g ai/ha) | Plant response rating, Barnyardgrass ([1]; 250 g ai/ha) | Plant response rating, Ducksalad ([2]; 31 g ai/ha) | Plant response rating, Ducksalad ([2]; 62 g ai/ha) | Plant response rating, Ducksalad ([2]; 125 g ai/ha) | Plant response rating, Ducksalad ([2]; 250 g ai/ha) | Plant response rating, Rice ([3]; 31 g ai/ha) | Plant response rating, Rice ([3]; 62 g ai/ha) | Plant response rating, Rice ([3]; 125 g ai/ha) | Plant response rating, Rice ([3]; 250 g ai/ha) | Plant response rating, Sedge, Umbrella ([4]; 31 g ai/ha) | Plant response rating, Sedge, Umbrella ([4]; 62 g ai/ha) | Plant response rating, Sedge, Umbrella ([4]; 125 g ai/ha) | Plant response rating, Sedge, Umbrella ([4]; 250 g ai/ha) |
| --- | --- | --- | --- | --- | --- | --- | --- | --- | --- | --- | --- | --- | --- | --- | --- | --- |
| CC(F)(F)c1cc(-c2ccccc2Oc2ncc(Cl)cn2)on1 [Compound 178] | 0 | 0 | 0 | 0 | 40 | 65 | 70 | 70 | 0 | 0 | 0 | 0 | 30 | 60 | 60 | 75 |
| N#Cc1cccc(Oc2ncc(Cl)cn2)c1-c1cc(C(F)F)on1 [Compound 180] | 0 | 0 | 10 | 10 | 0 | 0 | 75 | 75 | 0 | 0 | 0 | 0 | 0 | 50 | 75 | 80 |
| Fc1ccc(Oc2ncc(Cl)cn2)c(-c2cc(C(F)(Cl)Cl)on2)c1 [Compound 221] | – | 40 | – | 60 | – | 80 | – | 90 | – | 15 | – | 40 | – | 80 | – | 95 |
